The target of experiment [1] is T1, JAK2 (Homo sapiens, UniProt O60674).
T1 construct: GST; purchased Life Technologies
Nature of the experiment: Biochemical JAK2 kinase assay (LanthaScreen). As to conditions: for Ki: read-out: JAK 2 (pKi) (converted). In outline:
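pKi values derive from pIC50 via Cheng-Prusoff, with IC50 from a 4-parameter fit of percent-inhibition TR-FRET data using Tb-anti-pSTAT1 (pTyr701) detection. Compound, GST-JAK2 and GFP-STAT1 substrate were pre-incubated 1 h, then ATP started a 1 h ambient reaction (HEPES pH 7.5, 10 mM MgCl2, 1% DMSO).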
A general note: Time-resolved FRET reads energy transfer from a long-lived donor to a nearby acceptor.

The target of experiment [2] is T2, JAK3 (Homo sapiens, UniProt P52333).
T2 sequence (P52333 1-1124): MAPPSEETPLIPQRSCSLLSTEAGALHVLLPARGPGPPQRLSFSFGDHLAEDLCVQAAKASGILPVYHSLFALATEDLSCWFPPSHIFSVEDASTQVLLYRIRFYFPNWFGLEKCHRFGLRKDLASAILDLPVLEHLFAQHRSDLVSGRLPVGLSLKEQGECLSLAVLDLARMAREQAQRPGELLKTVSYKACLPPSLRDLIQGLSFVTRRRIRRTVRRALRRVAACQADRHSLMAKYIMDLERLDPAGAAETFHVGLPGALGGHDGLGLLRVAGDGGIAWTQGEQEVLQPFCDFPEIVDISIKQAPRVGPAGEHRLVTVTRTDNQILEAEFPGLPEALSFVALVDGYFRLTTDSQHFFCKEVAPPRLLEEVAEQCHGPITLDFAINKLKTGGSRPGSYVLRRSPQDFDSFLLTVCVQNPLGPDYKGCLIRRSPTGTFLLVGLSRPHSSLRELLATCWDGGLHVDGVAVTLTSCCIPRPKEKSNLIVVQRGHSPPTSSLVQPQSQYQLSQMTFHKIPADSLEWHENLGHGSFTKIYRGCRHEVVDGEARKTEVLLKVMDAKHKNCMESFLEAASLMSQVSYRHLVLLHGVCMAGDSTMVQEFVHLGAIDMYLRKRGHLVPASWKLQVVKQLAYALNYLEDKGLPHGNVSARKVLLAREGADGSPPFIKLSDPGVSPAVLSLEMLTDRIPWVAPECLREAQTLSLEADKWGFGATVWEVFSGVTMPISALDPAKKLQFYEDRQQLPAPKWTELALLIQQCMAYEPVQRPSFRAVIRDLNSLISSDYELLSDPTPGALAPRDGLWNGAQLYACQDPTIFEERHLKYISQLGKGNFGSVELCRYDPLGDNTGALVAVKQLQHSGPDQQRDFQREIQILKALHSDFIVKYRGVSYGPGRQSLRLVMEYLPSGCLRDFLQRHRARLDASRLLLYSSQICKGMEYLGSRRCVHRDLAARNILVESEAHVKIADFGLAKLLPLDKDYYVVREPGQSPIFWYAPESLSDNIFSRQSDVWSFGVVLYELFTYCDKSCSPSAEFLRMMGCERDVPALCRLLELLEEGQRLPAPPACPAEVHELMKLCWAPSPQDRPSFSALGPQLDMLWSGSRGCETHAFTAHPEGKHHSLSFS
The experiment is described as follows: Biochemical JAK3 kinase assay (LanthaScreen). Details: GST; purchased Life Technologies. Particulars: for Ki: read-out: JAK 3 (pKi) (converted). In a few lines:
(§1)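 Values are pKi, calculated by Cheng-Prusoff from IC50 obtained by robust 4-parameter fitting of percent inhibition. The kinase reaction used GFP-STAT1 peptide in HEPES pH 7.5 buffer with MgCl2, EGTA and Brij-35, ATP-initiated after compound pre-incubation, 1 h at ambient temperature.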

In experiment [3] the target is T3, Tyk2 (Homo sapiens, UniProt P29597).
T3 construct: GST; purchased Life Technologies
Nature of the experiment: Biochemical Tyk2 kinase assay (LanthaScreen). As to conditions: for Ki: read-out: Tyk 2 (pKi) (converted). In a few lines: as §1

The test system of experiment [4] is IL-2 stimulated pSTAT5 in Tall-1 T cells. Nature of the experiment: Cellular JAK3 potency assay: inhibition of IL-2 stimulated pSTAT5 in Tall-1 T cells. In kind it is cell-based, human. Particulars: for IC50: Homo sapiens, read-out: Tall-1 (pIC50) (converted). In outline: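 Tall-1 human T cells were preincubated with compound for 1 h at 37° C, then stimulated with IL-2 (300 ng/ml final) for 30 min. STAT5 phosphorylation in lysates was read by AlphaLisa bead emission, and IC50 from inhibition curves is given as pIC50 (mean±SD).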

Experiment [5] deals with T4, JAK1 (Homo sapiens, UniProt P23458).
T4 construct: GST; purchased Life Technologies
Nature of the experiment: Biochemical JAK1 kinase assay (LanthaScreen). As to conditions: for Ki: read-out: JAK 1 (pKi) (converted). In outline:
as §1

The mark [6] stands for this setting: selectivity: difference of pKi JAK3 and pKi JAK1.
The mark [7] stands for this setting: TALL-1, IL-2 stimulated pSTAT5 in Tall-1 T cells.
Where [8] appears, read: IL-2 stimulated pSTAT5 in Tall-1 T cells.
[9] abbreviates: selectivity JAK3 over JAK1, difference of pKi.
Where [10] appears, read: IL-2 stimulated pSTAT5, Tall-1 T cells.

The values below come from patent US10392368B2, “Pyrazolo and triazolo bicyclic compounds as JAK kinase inhibitors” (THERAVANCE BIOPHARMA R&D IP, LLC, priority 2017, dated 2019).

Read-outs that look alike come from different tables or passages of the source.

T3 sequence (P29597 whole entry): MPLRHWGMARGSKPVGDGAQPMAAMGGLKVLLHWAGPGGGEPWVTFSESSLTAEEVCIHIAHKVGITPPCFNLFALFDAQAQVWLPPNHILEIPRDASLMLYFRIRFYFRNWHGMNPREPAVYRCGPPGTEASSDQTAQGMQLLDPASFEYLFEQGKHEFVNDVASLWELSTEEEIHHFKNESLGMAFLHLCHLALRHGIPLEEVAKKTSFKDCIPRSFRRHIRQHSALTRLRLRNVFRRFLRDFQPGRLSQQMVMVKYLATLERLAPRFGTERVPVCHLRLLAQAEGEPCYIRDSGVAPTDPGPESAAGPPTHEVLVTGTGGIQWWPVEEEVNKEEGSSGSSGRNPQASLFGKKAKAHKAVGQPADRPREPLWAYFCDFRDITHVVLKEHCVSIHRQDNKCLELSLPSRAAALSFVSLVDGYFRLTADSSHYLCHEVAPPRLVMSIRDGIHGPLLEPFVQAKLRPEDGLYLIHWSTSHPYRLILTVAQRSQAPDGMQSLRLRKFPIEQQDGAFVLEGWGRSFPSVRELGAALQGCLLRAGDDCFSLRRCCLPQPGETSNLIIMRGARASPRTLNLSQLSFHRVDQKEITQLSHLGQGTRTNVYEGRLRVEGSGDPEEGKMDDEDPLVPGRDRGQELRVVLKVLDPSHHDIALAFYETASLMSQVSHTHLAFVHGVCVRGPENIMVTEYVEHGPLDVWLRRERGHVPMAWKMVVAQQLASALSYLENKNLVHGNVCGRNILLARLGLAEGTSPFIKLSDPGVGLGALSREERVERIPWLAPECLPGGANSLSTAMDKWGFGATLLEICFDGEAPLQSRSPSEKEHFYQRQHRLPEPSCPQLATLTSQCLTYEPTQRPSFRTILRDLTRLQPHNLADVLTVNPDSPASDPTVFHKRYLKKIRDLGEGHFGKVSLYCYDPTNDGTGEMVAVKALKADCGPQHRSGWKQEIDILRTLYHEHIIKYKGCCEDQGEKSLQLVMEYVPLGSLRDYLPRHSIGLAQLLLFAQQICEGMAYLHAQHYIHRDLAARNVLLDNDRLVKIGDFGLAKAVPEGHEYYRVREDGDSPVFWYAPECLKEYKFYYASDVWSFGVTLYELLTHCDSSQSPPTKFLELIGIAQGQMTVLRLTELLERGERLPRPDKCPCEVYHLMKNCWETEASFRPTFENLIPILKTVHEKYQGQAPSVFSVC
T1 sequence (O60674 whole entry): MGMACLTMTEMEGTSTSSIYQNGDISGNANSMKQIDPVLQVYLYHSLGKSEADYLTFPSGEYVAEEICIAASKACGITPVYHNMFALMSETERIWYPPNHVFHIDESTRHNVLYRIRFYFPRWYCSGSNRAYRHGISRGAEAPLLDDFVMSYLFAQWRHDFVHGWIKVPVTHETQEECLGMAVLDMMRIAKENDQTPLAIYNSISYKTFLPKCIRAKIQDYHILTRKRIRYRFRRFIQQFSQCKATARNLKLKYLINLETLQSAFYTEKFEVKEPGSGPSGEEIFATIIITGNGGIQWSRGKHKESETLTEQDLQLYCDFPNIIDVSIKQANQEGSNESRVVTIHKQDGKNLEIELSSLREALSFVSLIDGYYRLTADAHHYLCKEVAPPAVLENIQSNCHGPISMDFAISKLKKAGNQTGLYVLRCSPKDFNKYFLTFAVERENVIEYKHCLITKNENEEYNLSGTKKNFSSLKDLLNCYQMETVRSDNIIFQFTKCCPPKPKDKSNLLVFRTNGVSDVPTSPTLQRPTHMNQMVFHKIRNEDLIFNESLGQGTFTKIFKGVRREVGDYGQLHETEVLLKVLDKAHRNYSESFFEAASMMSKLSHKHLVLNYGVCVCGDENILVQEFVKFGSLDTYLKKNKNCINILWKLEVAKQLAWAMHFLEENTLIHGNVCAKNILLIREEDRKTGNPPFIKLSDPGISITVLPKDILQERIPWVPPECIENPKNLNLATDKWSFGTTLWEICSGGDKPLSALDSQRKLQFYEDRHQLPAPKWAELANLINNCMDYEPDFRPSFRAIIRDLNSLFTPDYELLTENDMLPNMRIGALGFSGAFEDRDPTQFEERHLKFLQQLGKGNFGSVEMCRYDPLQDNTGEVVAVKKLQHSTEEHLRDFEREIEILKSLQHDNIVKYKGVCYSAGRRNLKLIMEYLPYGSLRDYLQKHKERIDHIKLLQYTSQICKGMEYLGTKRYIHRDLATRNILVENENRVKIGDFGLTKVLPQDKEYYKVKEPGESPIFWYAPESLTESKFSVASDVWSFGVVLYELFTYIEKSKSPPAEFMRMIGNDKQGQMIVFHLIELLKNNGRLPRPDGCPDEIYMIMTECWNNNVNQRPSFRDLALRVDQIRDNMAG
T4 sequence (P23458 whole entry): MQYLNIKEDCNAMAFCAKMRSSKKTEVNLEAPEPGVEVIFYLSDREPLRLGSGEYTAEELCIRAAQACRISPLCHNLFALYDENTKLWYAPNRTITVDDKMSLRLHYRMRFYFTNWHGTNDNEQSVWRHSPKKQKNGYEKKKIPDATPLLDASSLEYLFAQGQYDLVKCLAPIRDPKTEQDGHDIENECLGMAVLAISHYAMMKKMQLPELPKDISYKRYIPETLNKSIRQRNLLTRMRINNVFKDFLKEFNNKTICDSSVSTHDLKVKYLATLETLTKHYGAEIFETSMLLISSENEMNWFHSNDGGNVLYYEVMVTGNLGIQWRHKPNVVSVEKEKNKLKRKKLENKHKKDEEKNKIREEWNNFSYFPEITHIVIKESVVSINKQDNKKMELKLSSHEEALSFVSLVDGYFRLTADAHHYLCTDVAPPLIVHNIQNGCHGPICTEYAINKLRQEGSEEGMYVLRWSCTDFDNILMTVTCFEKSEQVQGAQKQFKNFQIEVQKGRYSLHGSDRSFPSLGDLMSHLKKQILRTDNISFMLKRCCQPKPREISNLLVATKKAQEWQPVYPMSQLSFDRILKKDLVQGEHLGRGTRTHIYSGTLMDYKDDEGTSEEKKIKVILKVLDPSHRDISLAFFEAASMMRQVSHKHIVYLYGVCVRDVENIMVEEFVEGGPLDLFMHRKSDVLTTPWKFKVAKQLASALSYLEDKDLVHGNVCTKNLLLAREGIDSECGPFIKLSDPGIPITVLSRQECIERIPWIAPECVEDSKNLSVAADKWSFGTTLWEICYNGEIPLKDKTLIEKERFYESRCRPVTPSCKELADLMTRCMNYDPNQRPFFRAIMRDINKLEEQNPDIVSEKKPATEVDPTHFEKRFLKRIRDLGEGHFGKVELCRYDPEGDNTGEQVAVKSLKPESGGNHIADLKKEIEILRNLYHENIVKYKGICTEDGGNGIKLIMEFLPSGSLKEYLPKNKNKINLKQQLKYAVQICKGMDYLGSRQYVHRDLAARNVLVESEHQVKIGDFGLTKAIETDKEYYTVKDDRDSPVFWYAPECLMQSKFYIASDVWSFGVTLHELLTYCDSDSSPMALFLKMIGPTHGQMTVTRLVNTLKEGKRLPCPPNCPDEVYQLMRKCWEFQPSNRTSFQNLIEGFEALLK

For the compound `C=CC(=O)N1CC[C@H](Oc2cc(-c3ccc(O)cc3)nc3[nH]nc(C)c23)C1` [Compound 1-31], the Ki is more than 100 nM in experiment [1], less than 0.1 nM in experiment [2], more than 100 nM in experiment [3] and more than 100 nM in experiment [5]. Moreover, the “JAK3 (pKi)-JAK1 (pKi)” value in experiment [2] (setting [6]) is listed as “A (a value of 3 or above)”. In addition, the IC50 in experiment [4] (setting [7]) was 31.6 to 200 nM.

For the compound `C=CC(=O)N1CC(CN(C)c2cc(-c3ccc(O)c(Cl)c3)cc3[nH]ncc23)C1` [Compound 4-5], the “JAK 2 (pKi)” value in experiment [1] is recorded as “E (a pKi value of 7 or below (Ki of 100 nM or above))”. Also, the “JAK 3 (pKi)” value in experiment [2] is “B (a pKi value between 9 and 10 (Ki between 1 nM and 0.1 nM))”. Besides, in experiment [2] (setting [6]), the “JAK3 (pKi)-JAK1 (pKi)” value is reported as “A (a value of 3 or above)”. Moreover, the “Tyk 2 (pKi)” value in experiment [3] is recorded as “E (a pKi value of 7 or below (Ki of 100 nM or above))”. For the same compound, the “Tall-1 (pIC50)” value in experiment [4] (setting [8]) is “A (a pIC50 value≥7.5 (IC50≤32 nM))”. Moreover, the “JAK 1 (pKi)” value in experiment [5] is “E (a pKi value of 7 or below (Ki of 100 nM or above))”.

For `C=CC(=O)N1CCC(N(C)c2cc(-c3ccc(O)c(Cl)c3)cc3[nH]ncc23)CC1` [Compound 7-7], the “JAK 2 (pKi)” value in experiment [1] is “D (a pKi value between 7 and 8 (Ki between 100 nM and 10 nM))”. In addition, the “JAK 3 (pKi)” value in experiment [2] is “B (a pKi value between 9 and 10 (Ki between 1 nM and 0.1 nM))”. Further, in experiment [2] (setting [9]), the “JAK3 (pKi)-JAK1 (pKi)” value is recorded as “A (a value of 3 or above)”. The “Tyk 2 (pKi)” value in experiment [3] is “E (a pKi value of 7 or below (Ki of 100 nM or above))”. For the same compound, in experiment [4] (setting [10]), the “Tall-1 (pIC50)” value is “B (a pIC50 value between 6.7 (included) and 7.5 (IC50 between 200 nM and 32 nM))”. For the same compound, in experiment [5], the “JAK 1 (pKi)” value is “E (a pKi value of 7 or below (Ki of 100 nM or above))”.

As to `C=CC(=O)N1CC(Sc2cc(-c3ccc(O)cc3)cc3[nH]ncc23)C1` [Compound 12-35], the Ki was more than 100 nM in experiment [1], 0.1 to 1 nM in experiment [2], more than 100 nM in experiment [3] and more than 100 nM in experiment [5]. Also, the “JAK3 (pKi)-JAK1 (pKi)” value in experiment [2] (setting [9]) is reported as “B (a value of 2.3 to 3)”. The IC50 in experiment [4] (TALL-1, IL-2 stimulated pSTAT5, Tall-1 T cells) is 31.6 to 200 nM.

On to `C=CC(=O)N1CC(F)(COc2cc(-c3ccc(O)c(Cl)c3)nc3[nH]ncc23)C1` [Compound 3-94], for which the “JAK 2 (pKi)” value in experiment [1] is given as “E (a pKi value of 7 or below (Ki of 100 nM or above))”. In experiment [2], the “JAK 3 (pKi)” value is reported as “A (a pKi value≥10 (Ki≤0.1 nM))”. Moreover, the “JAK3 (pKi)-JAK1 (pKi)” value in experiment [2] (setting [6]) is reported as “A (a value of 3 or above)”. The “Tyk 2 (pKi)” value in experiment [3] is given as “E (a pKi value of 7 or below (Ki of 100 nM or above))”. For the same compound, the “Tall-1 (pIC50)” value in experiment [4] (setting [8]) was “A (a pIC50 value≥7.5 (IC50≤32 nM))”. In addition, the “JAK 1 (pKi)” value in experiment [5] is listed as “E (a pKi value of 7 or below (Ki of 100 nM or above))”.

With `C=CC(=O)N1CCC(N(C)c2cc(-c3ccc(O)cc3)cc3[nH]ncc23)CC1` [Compound 7-3], the “JAK 2 (pKi)” value in experiment [1] is recorded as “E (a pKi value of 7 or below (Ki of 100 nM or above))”. Also, in experiment [2], the “JAK 3 (pKi)” value is “B (a pKi value between 9 and 10 (Ki between 1 nM and 0.1 nM))”. The “JAK3 (pKi)-JAK1 (pKi)” value in experiment [2] (setting [9]) was “A (a value of 3 or above)”. In addition, the “Tyk 2 (pKi)” value in experiment [3] was “E (a pKi value of 7 or below (Ki of 100 nM or above))”. Besides, in experiment [4] (setting [10]), the “Tall-1 (pIC50)” value is “B (a pIC50 value between 6.7 (included) and 7.5 (IC50 between 200 nM and 32 nM))”. Further, the “JAK 1 (pKi)” value in experiment [5] is listed as “E (a pKi value of 7 or below (Ki of 100 nM or above))”.

`C=CC(=O)N1CC(COc2nc(-c3ccc(O)c(Cl)c3)cc3[nH]ncc23)C1` [Compound 3-35]: the Ki in experiment [1] is more than 100 nM; in experiment [2], 0.1 to 1 nM; in experiment [3] it was more than 100 nM; in experiment [5], more than 100 nM. The “JAK3 (pKi)-JAK1 (pKi)” value in experiment [2] (setting [6]) is given as “A (a value of 3 or above)”. For the same compound, the IC50 in experiment [4] (setting [7]) was less than 31.6 nM.

Take `C=C(CN(C)C)C(=O)N1CC(COc2nc(-c3ccc(O)cc3)nc3[nH]ncc23)C1` [Compound 3-112]: the Ki in experiment [1] is more than 100 nM; in experiment [2] it was 0.1 to 1 nM; in experiment [3], more than 100 nM; in experiment [5], more than 100 nM. For the same compound, in experiment [2] (setting [6]), the “JAK3 (pKi)-JAK1 (pKi)” value was “A (a value of 3 or above)”. In addition, the IC50 in experiment [4] (setting [7]) was 31.6 to 200 nM.
